Key:
[1] = tested on: HBV (D type); test: PHH (Primary Human Hepatocyte) Assay, HBV infection; type: cell-based, hepatitis B virus; settings: PHH cells infected with HBV (D type); for inhibition of HBV RNA: culture supernatant day 9, RT-qPCR, FIG. 3; for inhibition of extracellular HBV DNA: culture supernatant day 9, qPCR, FIG. 1; for inhibition of HBsAg: culture supernatant day 9, FIG. 2
Description: PHH (Primary Human Hepatocyte) Assay: Cell Line and Compound Treatment
The PHH cells were seeded into the 48-well plates at the density of 1.32×10^5 cells/well. The PHH cells seeding date was defined as day 0. The PHH cells were infected with HBV (D type) at 1600 GE/cell on day 1. The culture medium containing compounds was refreshed on day 2, 4, 6 and day 8. On day 9, the cells were treated with CCK8 and culture supernatant and cells were collected.
FXR Compounds were tested at 10000.0, 3000.0, 1000.0, 300.0, 100.0, 30.0, and 10.0 nM, and ETV was tested at 0.2000, 0.0667, 0.0222, 0.0074, 0.0025, 0.0008, and 0.0003 nM. 1% DMSO was used as non-treatment control. The supernatants on day 9 were collected, and analyzed for HBV DNA by qPCR, HBV RNA by RT-qPCR, HBsAg and HBeA by ELISA.
DNA in the culture supernatants was isolated with the QIAamp 96 DNA Blood Kit according to the manual and quantified by the qPCR. 80 μl of the culture supernatants sample was used to extract DNA. The elution volume was 120 μl. The PCR mix (8 μl/well) and the samples (2 μl/well) or plasmid standards (2 μl/well) were added to the 384-well optical reaction plate and performed using the following program: 95C for 10 min, then cycling at 95° C. 15 sec, 60° C. 1 min for 40 cycles.
RNA in the culture supernatants was isolated with the PureLink™ Pro 96 Viral RNA Kit according to the manual. 35 μl of the culture supernatants sample was used to extract RNA. The elution volume was 100 μl. HBV RNA was quantified by RT-qPCR.
For HepG2-NTCP Assay, HBsAg and HBeAg in the samples harvested on day 9 were measured by the HBsAg ELISA kit (Autobio) and HBeAg ELISA kit (Autobio) according to the manual. For PHH assay, Chemiluminescence Apparatu was used to measure HBsAg according to the Antu HBsAg ELISA kit manual.
% HBV DNA inhibition=(1−HBV DNA copy number of test sample/avg. HBV DNA copy number of 1% DMSO control)×100%
% HBV RNA inhibition=(1−HBV RNA copy number of test sample/avg. HBV RNA copy number of 1% DMSO control)×100%
% HBsAg inhibition=(1−HBsAg quantity of sample/HBsAg quantity of 1% DMSO control)×100%
The EC50 and CC50 values were determined by dose-response curves fitted by GraphPad Prism using “log (agonist) vs. response-variable slope”.

[2] = tested on: HBV (rAAV8-1.3HBV); test: AAV/HBV Mouse Model; type: in vivo, mice
From the text: AAV/HBV Mouse Model and Compound Treatment
Male C57BL′6 mice of 5-week old (obtained from Shanghai Jihui Laboratory Animal Care Co., Ltd) were given rAAV8-1.3HBV (1×1011 v.g.) via tail vein to establish infection on Day −28. After 14 days, 21 days, and on Day −4, blood was drawn from submandibular vein to determine the level of HBV DNA, and HBsAg. On Day-4, 40 mice were chosen based on HBV DNA, and HBsAg results, and were randomly assigned to 5 groups. After the mice were infected with HBV virus for 28 days, treatment was given orally once per day, for 4 weeks. Group 1 was given vehicle (0.5% CMC-Na, 10 ml/kg), Group 2 was given positive control ETV (0.1 mg/kg). Groups 3, 4, and 5 were given Compound 33 at 10 mg/kg, 30 mg/kg, and 60 mg/kg, respectively. Blood was drawn from submandibular vein every week to determine the concentration of HBV DNA, HBV RNA, and HBsAg. On Day 28, blood was taken from the heart.
HBV DNA determination by qPCR. DNA in the mice plasma was isolated with the QIAamp 96 DNA Blood Kit according to the manual and quantified by the qPCR, and performed using the following program: 95C for 10 min, then cycling at […] 15 sec, 60° C. 1 min for 40 cycles.
HBV RNA determination by qPCR. RNA in the mice plasma was isolated with the PureLink™ Pro 96 Viral RNA/DNA Kit according to the manual. 20 μl of the plasma was used to extract RNA
HBsAg determination by ELISA. HBsAg in the samples was measured by the HBsAg ELISA kit (Autobio) according to the manual. Briefly, after the plasma was diluted 1200× in a coated plate, and incubate with the enzyme conjugated ([…], 60 min), and the plate was washed 5 time. Substrate was added, and it was kept from light at room temperature for 10 min and intensity was measured by a plated reader.
Average±Standard deviation was calculated for each group, and analyzed with Student's t-test.

[3] = positive control 0.1 mg/kg orally once per day, 4 weeks

Row | SMILES | inhibition of HBV RNA [1] | inhibition of extracellular HBV DNA [1] | inhibition of HBsAg [1] | HBsAg, lowered as compared to the vehicle group ([2]; high dose group 60 mg/kg orally once per day, 28 days, FIG. 6) | HBV RNA, lower than the vehicle group ([2]; high dose group 60 mg/kg orally once per day, 28 days, significantly lower than vehicle (p<0.01), FIG. 5) | HBV DNA, lower than the vehicle group ([2]; high dose group 60 mg/kg orally once per day, 28 days, significantly lower than vehicle (p<0.05), FIG. 4) | effect on HBV RNA as compared to the vehicle group [2, 3] | effect on HBsAg as compared to the vehicle group [2, 3]
1 | O=C(O)c1ccc(Oc2ccc3cc(OCc4c(-c5c(Cl)cccc5Cl)noc4C4CC4)ccc3c2)nc1 [Compound 1, 6-((6-((5-cyclopropyl-3-(2,6-dichlorophenyl)isoxazol-4-yl)methoxy)naphthalen-2-yl)oxy)nicotinic acid] | dose-dependent inhibition | dose-dependent inhibition | dose-dependent inhibition | – | – | – | – | –
2 | O=C(O)c1ccc(Oc2cccc3cc(OCc4c(-c5c(Cl)cccc5Cl)noc4C4CC4)ccc23)nc1 [Compound 22, 6-((6-((5-cyclopropyl-3-(2,6-dichlorophenyl)isoxazol-4-yl)methoxy)naphthalen-1-yl)oxy)nicotinic acid] | dose-dependent inhibition | dose-dependent inhibition | dose-dependent inhibition | – | – | – | – | –
3 | Cc1nc(Oc2cccc3cc(OCc4c(-c5c(Cl)cccc5Cl)noc4C4CC4)ccc23)ccc1C(=O)O [Compound 27, 6-((6-((5-cyclopropyl-3-(2,6-dichlorophenyl)isoxazol-4-yl)methoxy)naphthalen-1-yl)oxy)-2-methylnicotinic acid] | dose-dependent inhibition | dose-dependent inhibition | dose-dependent inhibition | – | – | – | – | –
4 | O=C([O-])c1ccc(Oc2ccc3cc(OCc4c(-c5c(Cl)cccc5Cl)noc4C4CC4)ccc3c2)nc1.[Na+] [Compound 33, Sodium 6-((6-((5-cyclopropyl-3-(2,6-dichlorophenyl)isoxazol-4-yl)methoxy)naphthalen-2-yl)oxy)nicotinate] | – | – | – | 0.38 log 10 [IU/ml] | 0.60-0.66 log 10[RNA copy/uL] | 0.77-1.12 log 10[DNA copy/uL] | – | –
5 | C=C1[C@H](CO)[C@@H](O)C[C@@H]1n1cnc2c(=O)[nH]c(N)nc21 [ETV, entecavir, reference compound] | no significant inhibition | significant inhibition | no significant inhibition | – | – | – | no significant effect | no significant effect

— patent US20230165843A1, “USE AND PHARMACEUTICAL COMPOSITION OF PHENYLISOXAZOLYL METHYLENE-NAPHTHALENE-ETHER DERIVATIVES” (priority 2019, published 2023)
